Here are results for eleven molecules from patent publication US7241732B2, “Compositions and methods involved in bone growth” (University of Rochester, priority 2001, dated 2007).

One data set has as its system osteoblast gene products. Put plainly: Osteoblast gene expression profile assay (real-time PCR). The data set is classed as cell-based. How it is done:
Both GPC4 and TRIP have been used in the creation of an osteoblast gene expression profile assay. This assay utilizes cDNA primer pairs that can be used to amplify a number of osteoblast gene products with real-time PCR. In addition to GPC4 and TRIP the following are assayed; osteocalcin (a bone specific protein), alkaline phosphatase (an enzyme present in large amounts in osteoblasts, cbfa1 (a transcription factor that induces osteoblast differentiation), PTH receptor 1 (the receptor responsible for PTH action), PTH receptor 2 (a secondary receptor that may be responsible for PTHrP action).
The data are interpretted by analyzing an increase in PCR cycle number, i.e. the number of PCR cycles necessary to obtain product. The higher the cylce number the smaller amount of starting mRNA.

The target in data set [1] is T1, type V tartrate resistant acid phosphatase (TRAP) (Sus scrofa, UniProt P09889).
T1 construct: One was from a purified protein extraction; from tissue; host or cells: gift of Dr. R. M. Roberts (University of Missouri)
T1 sequence (P09889 22-340): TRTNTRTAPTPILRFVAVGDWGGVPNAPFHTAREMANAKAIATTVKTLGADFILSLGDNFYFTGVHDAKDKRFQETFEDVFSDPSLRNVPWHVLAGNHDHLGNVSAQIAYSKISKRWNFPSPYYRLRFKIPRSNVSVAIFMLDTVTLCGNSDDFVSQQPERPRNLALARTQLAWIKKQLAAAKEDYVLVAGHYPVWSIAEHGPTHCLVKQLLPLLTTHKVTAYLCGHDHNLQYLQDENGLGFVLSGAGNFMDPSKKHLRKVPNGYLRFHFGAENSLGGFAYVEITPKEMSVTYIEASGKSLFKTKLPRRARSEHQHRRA
In words: Phage display bio-panning of random 12 amino acid M13 library with immobilized TRAP. It is filed as binding. The conditions noted are these: 44 phage clones sequenced after three rounds of bio-panning with TRAP. From the text:
In phage display either random peptide libraries or cell specific cDNA libraries can be used. Both have been used to target the interactions that take place in bone resporbtion and formation. Generally, the peptides or proteins are expressed on the surface coat of M13 or T7 phage and then these phage are used in a biopanning technique to identify which phage have affinity for a particular substrate (the “bait”). The adherent phage are eluted, amplified and used in another round of panning. After at least three rounds, phage clones are sequenced.
The TRAP used in these experiments was purified to homogeneity and was generously provided by Dr. M. Roberts.
After three rounds of bio-panning, elution and amplification 44 phage clones were selected at random and sequenced. Nine different sequences were identified. They are listed in Table 4 along with their consensus frequency. The most frequent phage sequenced was represented 15 times and the least frequent only a single time.

The subject of data set [2] is osteoblast binding to osteoclast lacunae. In words: Competition cell binding assay, osteoblasts on pitted bone wafers. The data set is classed as cell-based, rat. On the procedure: The 12 amino acid oligopeptide corresponding to the sequence from Clone 5 can inhibit osteoblast binding to osteoclast lacunae. […] (For these experiments, approximately 20% of the area of the wafers was pitted.) A concentration of 50 nM for the oligopeptide blocked osteoblast binding by approximately 66%. A statistically significant inhibition for binding occurred down to a concentration of 10 pM of the oligopeptide.
The 12 amino acid oligopeptide corresponding to the sequence from Clone 5 can inhibit osteoblast binding to osteoclast lacunae. […] For these experiments, approximately 20% of the area of the wafers was pitted. A concentration of 50 nM for the oligopeptide blocked osteoblast binding by approximately 66%. A statistically significant inhibition for binding occurred down to a concentration of 10 pM of the oligopeptide.
To measure the effect of selected phage peptides on osteoblast binding in osteoclast lacunae we performed a cell binding assay in the presence of increasing concentrations of the phage peptide. Osteoblasts were prelabeled with L-[4,5-^3H]Leucine (250 μCi TRK636-250 μCi, Amersham ) for 24 hrs. The osteoblasts were then added to pitted bone wafers in the presence of increasing concentrations of a synthetic 12 amino acid peptide that was identical to the phage sequence. After a two hour incubation at 37° C. the wafers were washed and the amount of radiolabel associated on each wafer determined by scintillation spectrometry. The specific activity of the cells (i.e. cpm/cell) was used to determine the number of cells adhering to the wafers.

In the next data set the test system is TRAP (GAL-4-BD-TRAP). Put plainly: Mammalian two-hybrid assay TRAP / GPC4. As to conditions: SaOS2 cells. The data set is classed as cell-based, human. On the procedure:
A mammalian two-hybrid assay was performed utilizing materials obtained from Clonetech (catalog #K1602-1). In this procedure we created two fusion proteins; a GAL4-BD-TRAP and a VP16-AD-GPC4. […] The TRAP sequence was obtained from Dr. James Bixley, University of Missouri, Columbia, Mo. GPC4 was obtained from a human osteoblast cDNA library from MG-63 cells.
GAL-4-BD-TRAP binds to the promoter of a luciferase reporter gene and the VP-16-AD-GPC4 activates RNA polymerase II activity. If the two target proteins interact with each other they will bring the binding domain protein into the vicinity of the activation domain and luciferase transcription will occur. The presence of luciferase activity in co-transfected cells is evidence for a physical association between the proteins.
In a control experiment, a second VP-16-AD protein was constructed using a GPC4 sequence deficient in the 12 amino acids identified from Clone 5 phage biopanning. This construct is termed VP-16-AD-GPC412. Deletion of the 12 amino acids from the GPC4 gene was accomplished with linker scanning mutagenesis
Pairs of plasmids were co-transfected into SaOS2 osteoblast-like cells using Lipofectamine®.

Sequence of TRAP (GAL-4-BD-TRAP) (P13686 22-325): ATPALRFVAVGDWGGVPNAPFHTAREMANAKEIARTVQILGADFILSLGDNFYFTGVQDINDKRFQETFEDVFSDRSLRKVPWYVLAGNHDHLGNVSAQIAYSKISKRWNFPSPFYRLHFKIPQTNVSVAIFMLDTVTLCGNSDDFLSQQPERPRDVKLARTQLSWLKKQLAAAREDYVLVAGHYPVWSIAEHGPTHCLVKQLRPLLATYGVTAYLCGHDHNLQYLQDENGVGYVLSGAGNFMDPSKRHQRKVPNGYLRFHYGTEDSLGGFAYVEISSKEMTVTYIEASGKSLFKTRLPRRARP

For the molecule Lead, in the data set on osteoblast gene products, the “effect on osteoblast gene products (in words)” value is “depresses all of the above gene products including GPC4 and TRIP”. Further, in the data set on osteoblast gene products (control 21), the “Lead PCR cycle number, TRIP” value was determined as 26. Also, in the data set with osteoblast gene products (control 23), the “Lead PCR cycle number, alkaline phosphatase” value was determined as 27 and the “Lead PCR cycle number, osteocalcin” value is 26. The “Lead PCR cycle number, cbfa1” value in the data set with osteoblast gene products (control 24) stood at 28. In addition, in the data set with osteoblast gene products (control 28), the “Lead PCR cycle number, PTH receptor 1” value stood at 33. Further, in the data set on osteoblast gene products (control 31), the “Lead PCR cycle number, PTH receptor 2” value worked out at 32. Also, the “Lead PCR cycle number, GPC4” value with osteoblast gene products (higher cycle number = smaller amount of starting mRNA, control 19) is on record as 24.
Consider “SEQ. ID No. 2: phage clone insert DNA from TRAP bio-panning, encodes peptide SEQ. ID No. 20 (DNA ACTATGGGTTTTACGGCTCCGCGGTTTCCGCATTAT; expressed or natural sequence)”, for which the “Fre (consensus frequency among sequenced phage clones)” value (from here on “Fre”) in data set [1] is listed as 6/44.
With “SEQ. ID No. 3: phage clone insert DNA from TRAP bio-panning, encodes peptide SEQ. ID No. 21 (DNA TCTCAGTGGCATCCGCGGTCTGCGTCGTATCCGATG; expressed or natural sequence)”, in data set [1], the “Fre” value is reported as 4/44.
Still for that read-out and setting: the value for “SEQ. ID No. 4: phage clone insert DNA from TRAP bio-panning, encodes peptide SEQ. ID No. 22 (DNA ACGCCGTCTCTTCCTCCGACTATGTTTCGGTTGACT; expressed or natural sequence)” was 4/44; that for “SEQ. ID No. 6: phage clone insert DNA from TRAP bio-panning, encodes peptide SEQ. ID No. 24 (DNA CGGCCACGGAACACCAGTAGACGTCCCATGCGCAGA; expressed or natural sequence)” was 2/44.
Take “SEQ. ID No. 7: phage clone insert DNA from TRAP bio-panning, encodes peptide SEQ. ID No. 25 (DNA ATAATGCGGAAACCGCGGAGCCGTAAAACCCATAGT; expressed or natural sequence)”: the “Fre” value in data set [1] is recorded as 5/44.
Same read-out and setting: the value for “SEQ. ID No. 8: phage clone insert DNA from TRAP bio-panning, encodes peptide SEQ. ID No. 26 (DNA CGGCCAACGGAACACCAGTAGACGTCCCATGCGCAG; expressed or natural sequence)” was 2/44; that for “SEQ. ID No. 9: phage clone insert DNA from TRAP bio-panning, encodes peptide SEQ. ID No. 27 (DNA ACCAAGCCCCGAATCACGCGAATAAAGCGGCCAAGA; expressed or natural sequence)” was 2/44.
With TPLSYLKGLVTV [Clone 5 peptide], in data set [2] (50 nM oligopeptide, about 20% of wafer area pitted), the blocked osteoblast binding entry was “approximately 66%”. Further, the “interference with osteoblast binding to osteoclast lacunae (in words)” value in data set [2] (FIG. 13) is given as “interfere with this osteoblast binding in a dose dependent fashion”. The “lowest concentration with statistically significant inhibition of osteoblast binding” value in data set [2] (pitted bone wafers) turned out to be 10 pM.

B1: VP-16-AD-GPC412: VP-16-AD fusion of GPC4 deficient in the 12 amino acids identified from Clone 5 (protein)
chain: ALLAAELKSKSCSEVRRLYVSKGFNKNDAPLHEINGDHLKICPQGSTCCSQEMEEKYSLQSKDDFKSVVSEQCNHLQAVFASRYKKFDEFFKELLENAEKSLNDMFVKTYGHLYMQNSELFKDLFVELKRYYVVGNVNLEEMLNDFWARLLERMFRLVNSQYHFTDEYLECVSKYTEQLKPFGDVPRKLKLQVTRAFVAARTFAQGLAVAGDVVSKVSVVNPTAQCTHALLKMKPCYNYCSNIMRGCLANQGDLDFEWNNFIDAMLMVAERLEGPFNIESVMDPIDVKISDAIMNMQDNSVQVSQKVFQGCGPPKPLPAGRISRSISESAFSARFRPHHPEERPTTAAGTSLDRLVTDVKEKLKQAKKFWSSLPSNVCNDERMAAGNGNEDDCWNGKGKSRYLFAVTGNGLANQGNNPEVQVDTSKPDILILRQIMALRVMTSKMKNAYNGNDVDFFDISDESSGEGSGSGCEYQQCPSEFDYNATDHAGKSANEKADSAGVRPGAQAYLLTVFCILFLVMQREWR
modifications: left off: large carriers
B1: in the data set with TRAP (GAL-4-BD-TRAP), the “increase in luciferase activity on co-transfection with GAL-4-BD-TRAP” value was “showed no difference from control levels”.

B2: VP-16-AD-GPC4: glypican 4 (GPC4) expressed as fusion protein with VP-16 activation domain (protein)
chain: ALLAAELKSKSCSEVRRLYVSKGFNKNDAPLHEINGDHLKICPQGSTCCSQEMEEKYSLQSKDDFKSVVSEQCNHLQAVFASRYKKFDEFFKELLENAEKSLNDMFVKTYGHLYMQNSELFKDLFVELKRYYVVGNVNLEEMLNDFWARLLERMFRLVNSQYHFTDEYLECVSKYTEQLKPFGDVPRKLKLQVTRAFVAARTFAQGLAVAGDVVSKVSVVNPTAQCTHALLKMIYCSHCRGLVTVKPCYNYCSNIMRGCLANQGDLDFEWNNFIDAMLMVAERLEGPFNIESVMDPIDVKISDAIMNMQDNSVQVSQKVFQGCGPPKPLPAGRISRSISESAFSARFRPHHPEERPTTAAGTSLDRLVTDVKEKLKQAKKFWSSLPSNVCNDERMAAGNGNEDDCWNGKGKSRYLFAVTGNGLANQGNNPEVQVDTSKPDILILRQIMALRVMTSKMKNAYNGNDVDFFDISDESSGEGSGSGCEYQQCPSEFDYNATDHAGKSANEKADS
modifications: left off: large carriers
Regarding B2, the “increase in luciferase activity on co-transfection with GAL-4-BD-TRAP” value in the data set with TRAP (GAL-4-BD-TRAP) is given as 10-20 fold.
